We go through eight compounds from US20260184700A1, “PDK1 REGULATORY COMPOUND AND COMPOSITION CONTAINING THE SAME” (PROVIBIO CO., LTD., priority 2024, published 2026).

The first data set relates to T cells isolated from mouse spleen. Put plainly: T cell proliferation inhibition, CFSE flow cytometry, CD3/CD28 activation. Format: cell-based. To be noted: compound 100 nM, CD3/CD28 activated, 3 days. The method, then: To verify the T cell proliferation inhibitory effect of the compounds according to the present invention, the following experiment was performed based on flow cytometry analysis using carboxyfluorescein diacetate succinimidyl ester (CFSE), a fluorescent dye that binds to intracellular molecules via covalent bonds.
Spleens were extracted from 7-week-old C57BL/6 mice, ground, and then separated into single cells using a strainer (40 μm pore size, SPL). Red blood cells were removed using ACK (Ammonium-Chloride-Potassium) lysis buffer to isolate white blood cells.
Finally, using a MACS Magnetic Stand and LS column, T cells were isolated from the spleen.
The T cells isolated from the spleen were resuspended in 1 mL of free medium (RPMI-1640+200 U/mL penicillin+200 μg/mL streptomycin), and 0.3 μL of CFSE (10 mM) was added. The mixture was incubated at 37° C. for 5 minutes.
Free medium (10 mL) was added to stop the reaction, and the cells were centrifuged to obtain the cell pellet.
RPMI 1640 medium containing 10% FBS, 100 U/mL penicillin, 100 μg/mL streptomycin, and resuspended the cells. The cells were then seeded into a 96-well plate at a density of 2×10^5 cells per well and activated with CD3 and CD28 antibodies (0.5 μg/mL each) to activate T cells.
The compound diluted in DMSO was added at concentrations of 10 nM, 100 nM, 1 μM, 10 μM, 30 μM, and 50 μM, with three wells per concentration, and cultured at 37° C. and 5% CO2 for three days. The cells were then analyzed using a FACS Canto instrument.
The proliferation inhibition rate (%) was calculated using the following formula: […]
(In flow cytometry, cells or beads pass a laser one at a time.)
For the compound `CC1CN(CCCCCCCCCCCCNC(=O)c2cccnc2N)CC(C)O1` (centres unmarked) [Compound 21, 2-Amino-N-(12-(2,6-dimethylmorpholino)dodecyl) nicotinamide], the “Proliferation inhibition rate (%)” value stood at 100.00%.
Regarding `CN(CCCCCCCCCCCCNC(=O)c1cccnc1N)C(C)(C)C` [Compound 53, 2-Amino-N-(12-(tert-butyl(methyl)amino)dodecyl) nicotinamide], the “Proliferation inhibition rate (%)” value is 100.00%.
The same measure, in the same setting: the result for `Nc1ncccc1C(=O)NCCCCCCCCCCCCN1CCC(Oc2ccncc2)CC1` [Compound 38, 2-Amino-N-(12-(4-(pyridin-4-yloxy)piperidin-1-yl)dodecyl) nicotinamide] reads 100.00%; that for `Cc1ccc(C2CCN(CCCCCCCCCCCCNC(=O)c3cccnc3N)CC2)cc1` [Compound 55, 2-Amino-N-(12-(4-(p-tolyl)piperidin-1-yl)dodecyl) nicotinamide], 100.00%.

Still in this data set, the particulars now being: compound 1 μM, CD3/CD28 activated, 3 days.
Regarding `Nc1ncccc1C(=O)NCCCCCCCCCCCCN1CCS(=O)(=O)CC1` [Compound 25, 2-Amino-N-(12-(1,1-dioxidothiomorpholino)dodecyl) nicotinamide], the “Proliferation inhibition rate (%)” value was 100.00%.
As to `CC1CN(CCCCCCCCCCCCNC(=O)c2cccnc2N)CC(C)O1` (centres unmarked) [Compound 21, 2-Amino-N-(12-(2,6-dimethylmorpholino)dodecyl) nicotinamide], the “Proliferation inhibition rate (%)” value was 100.00%.
Same read-out and setting: the result for `CN(CCCCCCCCCCCCNC(=O)c1cccnc1N)C(C)(C)C` [Compound 53, 2-Amino-N-(12-(tert-butyl(methyl)amino)dodecyl) nicotinamide] reads 100.00%; that for `C[C@H]1CNCCN1CCCCCCCCCCCCNC(=O)c1cccnc1N.Cl` [Compound 37, (S)-2-Amino-N-(12-(2-methylpiperazin-1-yl)dodecyl) nicotinamide hydrochloride], 100.00%; that for `Nc1ncccc1C(=O)NCCCCCCCCCCCCN1CCC(Oc2ccncc2)CC1` [Compound 38, 2-Amino-N-(12-(4-(pyridin-4-yloxy)piperidin-1-yl)dodecyl) nicotinamide], 100.00%.
Consider `Cc1ccc(C2CCN(CCCCCCCCCCCCNC(=O)c3cccnc3N)CC2)cc1` [Compound 55, 2-Amino-N-(12-(4-(p-tolyl)piperidin-1-yl)dodecyl) nicotinamide], for which the “Proliferation inhibition rate (%)” value stood at 100.00%.

The same data set, now with this note: compound 10 μM, CD3/CD28 activated, 3 days.
Consider `Nc1ncccc1C(=O)NCCCCCCCCCCCCN1CCS(=O)(=O)CC1` [Compound 25, 2-Amino-N-(12-(1,1-dioxidothiomorpholino)dodecyl) nicotinamide], for which the “Proliferation inhibition rate (%)” value is 100.00%.
For the compound `CC1CN(CCCCCCCCCCCCNC(=O)c2cccnc2N)CC(C)O1` (centres unmarked) [Compound 21, 2-Amino-N-(12-(2,6-dimethylmorpholino)dodecyl) nicotinamide], the “Proliferation inhibition rate (%)” value is on record as 100.00%.
Take `Nc1ncccc1C(=O)NCCCCCCCCCCCCN1CCOC1=O` [Compound 127, 2-amino-N-(12-(2-oxooxazolidin-3-yl)dodecyl) nicotinamide]: the “Proliferation inhibition rate (%)” value is 100.00%.
Take `CN(CCCCCCCCCCCCNC(=O)c1cccnc1N)C(C)(C)C` [Compound 53, 2-Amino-N-(12-(tert-butyl(methyl)amino)dodecyl) nicotinamide]: the “Proliferation inhibition rate (%)” value is listed as 100.00%.
As to `C[C@H]1CNCCN1CCCCCCCCCCCCNC(=O)c1cccnc1N.Cl` [Compound 37, (S)-2-Amino-N-(12-(2-methylpiperazin-1-yl)dodecyl) nicotinamide hydrochloride], the “Proliferation inhibition rate (%)” value is on record as 100.00%.
On the same count and under the same terms, as for `Nc1ncccc1C(=O)NCCCCCCCCCCCCN1CCC(Oc2ccncc2)CC1` [Compound 38, 2-Amino-N-(12-(4-(pyridin-4-yloxy)piperidin-1-yl)dodecyl) nicotinamide], the figure is 100.00%; as for `Cc1ccc(C2CCN(CCCCCCCCCCCCNC(=O)c3cccnc3N)CC2)cc1` [Compound 55, 2-Amino-N-(12-(4-(p-tolyl)piperidin-1-yl)dodecyl) nicotinamide], 100.00%.

Staying with this data set, now noted: compound 30 μM, CD3/CD28 activated, 3 days.
`Nc1ncccc1C(=O)NCCCCCCCCCCCCN1CCS(=O)(=O)CC1` [Compound 25, 2-Amino-N-(12-(1,1-dioxidothiomorpholino)dodecyl) nicotinamide]: the “Proliferation inhibition rate (%)” value was determined as 100.00%.
Same read-out and setting: as for `CC1CN(CCCCCCCCCCCCNC(=O)c2cccnc2N)CC(C)O1` (centres unmarked) [Compound 21, 2-Amino-N-(12-(2,6-dimethylmorpholino)dodecyl) nicotinamide], the figure is 100.00%.
On to `Nc1ncccc1C(=O)NCCCCCCCCCCCCN1CCOC1=O` [Compound 127, 2-amino-N-(12-(2-oxooxazolidin-3-yl)dodecyl) nicotinamide], for which the “Proliferation inhibition rate (%)” value is 100.00%.
As for `CN(CCCCCCCCCCCCNC(=O)c1cccnc1N)C(C)(C)C` [Compound 53, 2-Amino-N-(12-(tert-butyl(methyl)amino)dodecyl) nicotinamide], the “Proliferation inhibition rate (%)” value came to 100.00%.
In the case of `C[C@H]1CNCCN1CCCCCCCCCCCCNC(=O)c1cccnc1N.Cl` [Compound 37, (S)-2-Amino-N-(12-(2-methylpiperazin-1-yl)dodecyl) nicotinamide hydrochloride], the “Proliferation inhibition rate (%)” value is 100.00%.
As to `Nc1ncccc1C(=O)NCCCCCCCCCCCCN1CCC(Oc2ccncc2)CC1` [Compound 38, 2-Amino-N-(12-(4-(pyridin-4-yloxy)piperidin-1-yl)dodecyl) nicotinamide], the “Proliferation inhibition rate (%)” value is 100.00%.
The same measure, in the same setting: the result for `Cc1ccc(C2CCN(CCCCCCCCCCCCNC(=O)c3cccnc3N)CC2)cc1` [Compound 55, 2-Amino-N-(12-(4-(p-tolyl)piperidin-1-yl)dodecyl) nicotinamide] reads 100.00%.

The same data set, now with this note: compound 50 μM, CD3/CD28 activated, 3 days.
With `Nc1ncccc1C(=O)NCCCCCCCCCCCCN1CCS(=O)(=O)CC1` [Compound 25, 2-Amino-N-(12-(1,1-dioxidothiomorpholino)dodecyl) nicotinamide], the “Proliferation inhibition rate (%)” value was determined as 100.00%.
Regarding `CC1CN(CCCCCCCCCCCCNC(=O)c2cccnc2N)CC(C)O1` (centres unmarked) [Compound 21, 2-Amino-N-(12-(2,6-dimethylmorpholino)dodecyl) nicotinamide], the “Proliferation inhibition rate (%)” value came out at 100.00%.
For the compound `Nc1ncccc1C(=O)NCCCCCCCCCCCCN1CCOC1=O` [Compound 127, 2-amino-N-(12-(2-oxooxazolidin-3-yl)dodecyl) nicotinamide], the “Proliferation inhibition rate (%)” value is given as 100.00%.
`CN(CCCCCCCCCCCCNC(=O)c1cccnc1N)C(C)(C)C` [Compound 53, 2-Amino-N-(12-(tert-butyl(methyl)amino)dodecyl) nicotinamide]: the “Proliferation inhibition rate (%)” value is recorded as 100.00%.
Same read-out and setting: as for `C[C@H]1CNCCN1CCCCCCCCCCCCNC(=O)c1cccnc1N.Cl` [Compound 37, (S)-2-Amino-N-(12-(2-methylpiperazin-1-yl)dodecyl) nicotinamide hydrochloride], the figure is 100.00%; as for `Nc1ncccc1C(=O)NCCCCCCCCCCCCN1CCC(Oc2ccncc2)CC1` [Compound 38, 2-Amino-N-(12-(4-(pyridin-4-yloxy)piperidin-1-yl)dodecyl) nicotinamide], 100.00%; as for `Cc1ccc(C2CCN(CCCCCCCCCCCCNC(=O)c3cccnc3N)CC2)cc1` [Compound 55, 2-Amino-N-(12-(4-(p-tolyl)piperidin-1-yl)dodecyl) nicotinamide], 100.00%.

For another data set, the system named is Human B Lymphocyte cell line, SU-DHL-8. Put plainly: Relative cell viability, CCK-8, SU-DHL-8. Format: cell-based. To be noted: SU-DHL-8, 1 μM, 48 hours. On the procedure:
Human-derived B lymphoma cell line SU-DHL-8 (Cat. #CRL-2961) purchased from ATCC was cultured in RPMI-1640 medium containing 10% FBS, 100 U/mL penicillin, and 100 μg/mL streptomycin.
The cell culture medium was then harvested, centrifuged at 1,300 rpm for 5 minutes, and the supernatant was removed. The cells were resuspended in the same medium and dispensed into a 96-well plate (Costar 96-well cell culture plate, Corning) at 90 μL per well, resulting in the conditions specified in Table 5.
Then, 10 μL of CCK-8 was added to each well, and the plates were incubated again at 37° C. in a 5% CO2 incubator for 4 hours.
In other words, when the survival rate of untreated cells (DMSO) is set at 100%, the relative cell survival rate in each group treated with the drug at different concentrations is indicated.
In the case of `CN1CCN(C(=O)OC(C)(C)C)CC1CCCCCCCCNC(=O)c1cccnc1N` (centres unmarked) [Compound 12, tert-Butyl 3-(8-(2-aminonicotinamide)octyl)-4-methylpiperazine-1-carboxylate], the “Relative cell viability (%)” value is listed as 7.60%.

Staying with this data set, now noted: SU-DHL-8, 10 μM, 48 hours.
In the case of `CN1CCN(C(=O)OC(C)(C)C)CC1CCCCCCCCNC(=O)c1cccnc1N` (centres unmarked) [Compound 12, tert-Butyl 3-(8-(2-aminonicotinamide)octyl)-4-methylpiperazine-1-carboxylate], the “Relative cell viability (%)” value was determined as 3.79%.
Regarding `Nc1ncccc1C(=O)NCCCCCCCCCCCCN1CCC(Oc2ccncc2)CC1` [Compound 38, 2-Amino-N-(12-(4-(pyridin-4-yloxy)piperidin-1-yl)dodecyl) nicotinamide], the “Relative cell viability (%)” value was found to be 3.30%.

Still in this data set, the particulars now being: SU-DHL-8, 30 μM, 48 hours.
On to `Nc1ncccc1C(=O)NCCCCCCCCCCCCN1CCS(=O)(=O)CC1` [Compound 25, 2-Amino-N-(12-(1,1-dioxidothiomorpholino)dodecyl) nicotinamide], for which the “Relative cell viability (%)” value turned out to be 0.11%.
Take `CC1CN(CCCCCCCCCCCCNC(=O)c2cccnc2N)CC(C)O1` (centres unmarked) [Compound 21, 2-Amino-N-(12-(2,6-dimethylmorpholino)dodecyl) nicotinamide]: the “Relative cell viability (%)” value amounted to 3.70%.
As for `CN1CCN(C(=O)OC(C)(C)C)CC1CCCCCCCCNC(=O)c1cccnc1N` (centres unmarked) [Compound 12, tert-Butyl 3-(8-(2-aminonicotinamide)octyl)-4-methylpiperazine-1-carboxylate], the “Relative cell viability (%)” value is on record as 1.64%.
As to `Cc1ccc(C2CCN(CCCCCCCCCCCCNC(=O)c3cccnc3N)CC2)cc1` [Compound 55, 2-Amino-N-(12-(4-(p-tolyl)piperidin-1-yl)dodecyl) nicotinamide], the “Relative cell viability (%)” value turned out to be 1.10%.

The same data set, now with this note: SU-DHL-8, 50 μM, 48 hours.
With `Nc1ncccc1C(=O)NCCCCCCCCCCCCN1CCS(=O)(=O)CC1` [Compound 25, 2-Amino-N-(12-(1,1-dioxidothiomorpholino)dodecyl) nicotinamide], the “Relative cell viability (%)” value worked out at 0.95%.
With `CN1CCN(C(=O)OC(C)(C)C)CC1CCCCCCCCNC(=O)c1cccnc1N` (centres unmarked) [Compound 12, tert-Butyl 3-(8-(2-aminonicotinamide)octyl)-4-methylpiperazine-1-carboxylate], the “Relative cell viability (%)” value is listed as 1.13%.
For `Cc1ccc(C2CCN(CCCCCCCCCCCCNC(=O)c3cccnc3N)CC2)cc1` [Compound 55, 2-Amino-N-(12-(4-(p-tolyl)piperidin-1-yl)dodecyl) nicotinamide], the “Relative cell viability (%)” value is 0.97%.
